Data taken from patent US12247223B2, “Human liver-like three-dimensional structure, method for evaluating hepatotoxicity and human liver-like complex” (CYFUSE BIOMEDICAL K.K., priority 2019, dated 2025).

How the values were obtained:
[1] = system: human liver-like three-dimensional construct A; assay: Assessment of hepatotoxicity: albumin concentration in the medium of the construct; assay type: cell-based; settings: drug 5-1000 μmol/l in medium, up to 24 days
Procedure: (§1) A DMSO solution of trovafloxacin, a drug that is known to show hepatotoxicity when administered to a human, was prepared. […] Changes in the albumin concentrations in the media up to 24 days following addition of the drug, and the levels of ATP contained in the constructs at the end of the experiment were measured using CellTiter-Glo 3D substrate. Furthermore, tissue sections of the constructs were prepared to obtain images of HE staining and immunostaining for albumin.
DMSO solutions of 20 kinds of drugs that were known to show hepatotoxicity upon administration to a human were prepared. […] Changes in the albumin concentrations in the media 7 and 14 days following addition of the drug are shown in FIG. 8, in which data were normalized to the albumin concentration in the medium added with DMSO only (taken as 100%).

[2] = system: human liver-like three-dimensional construct A; assay: Number and particle-size distribution of exosome particles (qNano); assay type: cell-based; settings: three days after drug addition
Procedure: The culture medium of Experimental example 5 was centrifuged at 4° C. and 2,000×g for 20 minutes, followed by centrifugation of the collected supernatant at 15,000×g for 30 minutes. To 2.2 mL of each collected sample solution, 1.1 mL of ExoCap Ultracentrifugation/Storage Booster (registered trademark) and 7.7 mL of ultrapure water were added. The resultant was homogeneously stirred and subjected to ultracentrifugation protocol (35,000 rpm, 70 minutes,4° C.). […]
(§2) The number and the particle-size distribution of the exosome particles were measured using qNano (nanoparticle multi-analyzer). In addition, expression of CD9 in the collected exosomes was confirmed by Western blotting. miRNAs contained in a sample extracted from the exosomes using a RNA extraction kit were measured by digital PCR. Furthermore, microRNAs contained in the exosomes were taken out and the amounts of miR-122, miR-192 and miR-1 were quantified by a quantitative PCR method. […]
An increase in the particle number concentration of the exosomes contained in the media was observed only three days after the drug addition. Furthermore, miR-122 was detected in the collected exosomes.

[3] = system: human liver-like three-dimensional construct A; assay: miR-122-5p in exosomes released from the construct, digital PCR; assay type: cell-based; settings: exosomes from culture medium of Experimental example 5
Procedure: as §1
The culture medium of Experimental example 5 was centrifuged at 4° C. and 2,000×g for 20 minutes, followed by centrifugation of the collected supernatant at 15,000×g for 30 minutes. To 2.2 mL of each collected sample solution, 1.1 mL of ExoCap Ultracentrifugation/Storage Booster (registered trademark) and 7.7 mL of ultrapure water were added. […]
as §2

[4] = system: monolayer culture system; assay: Albumin concentration in monolayer culture system (standard of comparison); assay type: cell-based; settings: monolayer culture as standard of comparison (details omitted)
[5] = system: human liver-like three-dimensional construct A′; settings: 10 μmol/l
Procedure: A DMSO solution of phenytoin was prepared. The obtained drug-containing DMSO solution was added to the culture medium of the human liver-like three-dimensional construct A′ fabricated in Experimental example 3′ such that the concentration of the drug in the medium was 10 μmol/l. The medium was sampled up to 6 days following the drug addition, and the metabolic products in the medium were subjected to separation and structural analysis by a LC/MS/MS method. The abbreviations of the metabolites stand for the following constructs.
A DMSO solution of Torcetrapib was prepared. The obtained drug-containing DMSO solution was added to the culture medium of the human liver-like three-dimensional construct A′ fabricated in Experimental example 3′ such that the concentration of the drug in the medium was 10 μmol/l. The medium was sampled up to 6 days following the drug addition, and the metabolic products in the medium were subjected to separation and structural analysis by a LC/MS/MS method.

Compound | albumin concentration in the medium [1] | particle number concentration of the exosomes in the media [2] | miR-122 in the collected exosomes [3] | albumin concentration, monolayer culture system [4] | metabolic products separated and detected by LC [5]
N[C@@H]1[C@H]2CN(c3nc4c(cc3F)c(=O)c(C(=O)O)cn4-c3ccc(F)cc3F)C[C@@H]12 [Trovafloxacin, trovafloxacin] | drug concentration-dependent decrease | increase | detected | no decrease | –
CCOC(=O)N1c2ccc(C(F)(F)F)cc2[C@@H](N(Cc2cc(C(F)(F)F)cc(C(F)(F)F)c2)C(=O)OC)C[C@H]1CC [Torcetrapib] | – | – | – | – | Two kinds of metabolic products M2 and M5
